Results published in patent US20190076467A1, “ANTIVIRAL CONJUGATES OF P[…] AND ANTIVIRAL DRUG” (priority 2015, published 2019).

Columns and labels:
Measles = type: cell-based
Ebola virus = type: cell-based, Ebola Zaire
[1] = cited from earlier work

| SMILES | Activity against measles infectivity (Measles) | Effect on proliferation of Ebola virus (qRT-PCR cycle number) (Ebola virus) | pKa [1] |
| --- | --- | --- | --- |
| NC(=O)c1ncn([C@@H]2O[C@H](CO)[C@@H](O)[C@H]2O)n1 [Ribavirin] | no activity | no measurable effect | – |
| C=CC(=O)O [acrylic acid] | – | – | 4.5 |
| C=C(C)C(=O)O [methacrylic acid] | – | – | 6.5 |
